According to US20060094693A1, “Methods and compositions for treating glucose-associated conditions, metabolic syndrome, dyslipidemias and other conditions” (Point Therapeutics, Inc., priority 2004, published 2006):
Blank lines part the entries; values can stand above or below the compound they belong to.

Legend:
Lewis rats = assay: in vivo; settings: Lewis rats, single dose, 5 days observation
Procedure: Serum DPP-IV inhibition and observation of acute toxicity of amino boronic dipeptides in Lewis rats. […] After observations were completed or at the onset of a moribund state, humane euthanasia was performed by asphyxiation in 100% CO2.

[1] = target: T1, soluble recombinant human DPP-IV (Homo sapiens, UniProt P27487); assay: In vitro assay of enzymatic activity of recombinant soluble DPP-IV and inhibition by amino boronic dipeptides; assay type: biochemical; settings: assayed 3 minutes, 78 minutes and 16 hours after addition of Ala-Pro-AFC
T1 construct: immunoglobulin kappa light chain secretion signal (pSecTag2-B) (N, cleaved yes); made in house; host or cells: 293T cells, transient transfection; unpurified culture supernatant used
Description: Production of soluble recombinant human DPP-IV. Based on information on the N-terminus of serum DPP-IV (15), a truncated DPP-IV was engineered in which a signal/leader sequence was joined to the residue in DPP-IV corresponding to the N-terminus of serum DPP-IV to allow secretion. The cDNA encoding the desired truncated human DPP-IV dimer enzyme was engineered into the mammalian secretion vector pSecTag2 (Cat# V900-20, InVitrogen Corporation). The vector, available in A, B or C versions, representing three possible phases for gene fusion, contained an immunoglobulin-kappa light chain secretion signal followed by a selection of restriction sites for gene insertion. The fusion required engineering a restriction site upstream of the chosen fusion amino acid in the 5′ end of the DPP-IV dimer enzyme nucleic acid in phase with the chosen restriction site (Sfi I) in the vector secretion sequence. The chosen fusion amino acid in the 5′ end of the DPP-IV (Ser39) was 3′ of the trans-membrane anchoring domain. The pSecTag2 version B and its Sfi I restriction site was chosen for the fusion because it minimizes the additional N-terminal, vector-encoded residues in the mature secreted protein.
Construction of the fusion was as follows. First, total RNA was isolated from the Caco-2 colorectal carcinoma cell line (ATCC HTB-37) by standard Trizol/phenol/chloroform methodology. The purified RNA (approx. 2.5 μg in a 20 μl reaction) was used to make cDNA using oligo-dT primer and a commercial reverse transcription (RT) kit (InVitrogen). […] The following thermal cycler program was used: 94° C. for 45 sec. initial denaturation, then 30 cycles of 94° C., 10 sec.; 48° C., 6 sec.; 60° C., 4 min; followed by 5-min. extension at 72° C. after cycling.
DNA from the plasmid encoding DPP-IV dimer enzyme was prepared on an approximately 400 μg scale from overnight 30 ml cultures in Luria broth with 100 μg ampicillin per ml using a commercial kit (Qiagen Maxiprep Kit).
In vitro assay of enzmatic activity ofrecombinant soluble DPP-IV and inhibition by amino boronic dipeptides. The assay reaction mixture consisted of 135 μl 50 mM HEPES/Na buffer pH 7.6, 140 mM NaCl, 10-15 gl enzyme-containing culture supernatant, dipeptide substrate Ala-Pro-(7-amino-4-trifluoromethyl coumarin) (Ala-Pro-AFC; Enzyme System Products, Dublin, Calif.) at typically 0.1-1 mM added from a 100 or 400 mM stock in dimethyl formamide. The reaction mixture was incubated at room temperature, and production of the fluorescent AFC product was measured in a fluorometer (excitation, 400 nm; emission 505 nm), either by continuous monitoring or after termination with a one to one-tenth volume of 1 -M sodium acetate, pH 4.5. Fluorometric reading were made with a Molecular Dynamics Spectra Max GeminiXS capable of reading 96-well microtiter plates. The inhibitory activity of amino boronic dipeptides was investigated by preincubation of assay reaction mixtures with varying concentrations of each compound for 10 minutes before the addition of the substrate Ala-Pro-AFC.

[2] = system: human bone marrow stromal cells; assay: G-CSF supernatant levels in human bone marrow stromal cell cultures; assay type: cell-based; settings: 1 to 10^4 nM, 24 hours
Procedure: Human bone marrow stromal cell cultures. Samples of normal human bone marrow were purchased from Cambrex Bioproducts (Walkersville, Md.) and mononuclear cells were purified over Ficoll-Hypaque (Nycomed, Oslo, Norway). Human stromal layers were established by seeding 4×10^7 mononuclear cells into T75 flasks (Corning) containing 20 ml MyeloCult medium (Stem Cell Technologies, Vancouver, BC) supplemented with 10^−6 M hydrocortisone (Sigma) and incubation at 37° C. in 100% humidified 5% CO2 in air. After one week, half the medium was exchanged, and the cultures incubated for approximately one week more, after which time, a semi-confluent cell layer was formed. Stromal cells were harvested by trypsinization using standard technique and 10^5 cells/well were seeded in multi-well plates in 1 ml of fully supplemented DMEM (InVitrogen, Carlsbad, Calif.). […] Multiwell cultures without the addition of amino boronic dipeptides served as controls. […] Supernatant concentrations of human G-CSF were determined by Quantikine enzyme-linked immunosorbent assay (ELISA; R&D Systems, Minneapolis, Minn.) according to the manufacturer's instructions. […] The effect of each amino boronic dipeptide on the level of supernatant G-CSF was determined by calculating a stimulation index (SI): SI=(mean G-CSF concentration in culture with amino boronic dipeptide)/(mean G-CSF concentration in control culture).

serum KC/CXCL1 = assay: Serum KC/CXCL1 levels in vivo (ELISA); design: species or system BALB/c mice; settings: 0.2-200 μg/mouse oral, 2 hours
Procedure: Assay ofserum DPP-IV inhibition and KC/CXCL1 levels in vivo. […] Each mouse received a single administration of each amino boronic dipeptide or saline, and blood samples were withdrawn from mice 2 hours later.
Serum concentration of mouse KC/CXCL1 was determined by Quantikine enzyme-linked immunosorbent assay (ELISA; R&D Systems, Minneapolis, Minn.) according to the manufacturer's instructions. ELISA was performed in duplicate for each sample.

[3] = system: Zucker Diabetic Fatty (ZDF) rats; assay: 6 week glycemic control study in Zucker Diabetic Fatty rats; assay type: in vivo; settings: Metformin group, day 14-15
Procedure: The design of the 6 week long study is depicted in FIG. 8. 60 male Zucker Diabetic Fatty (ZDF) rats (5 weeks of age) were obtained from Charles River Labs. The animals are housed singly and allowed to acclimatize for 1 week before the initiation of the study. 24-hour food intake and body weight was measured gravimetrically twice weekly from the start of housing. HbA1C levels were measured at Day 0, 7, 14, 28 and 46. OGTT was administered on Day 2-3, 15 minutes after the administration of the drugs. OGTT was administered again at the end of the study but in this case, drugs were given 15 hours prior to the OGTT. The 24-hour glucose profile was monitored at day 14-15 of the study.
The insulin sensitivity index was calculated at the termination of the study according to the method described by Matsuda and DeFronzo (Diabetes Care. 1999 Sep.;22(9):1462-70).

serum DPP-IV = target: T2, serum DPP-IV (Rattus norvegicus, UniProt P14740); assay: Serum DPP-IV inhibition in Lewis rats; assay type: in vivo; settings: single oral administration, 2 hours
T2 construct: from tissue; host or cells: serum of Lewis rats dosed with the compounds
Procedure: Assay of serum DPP-IV inhibition in vivo. […] DPP-IV activity was determined by reaction of 10 μl serum with 90 μl of 0.11 mM Ala-Pro-AFC (Enzyme System Products, Dublin, Calif.) in 50 mM HEPES/Na buffer pH 7.6, 140 mM NaCl.

DPP-IV = DPP-IV (Homo sapiens, UniProt P27487); settings: in vivo; cited from earlier work
DPP-IV, sequence (P27487 whole entry, species assumed): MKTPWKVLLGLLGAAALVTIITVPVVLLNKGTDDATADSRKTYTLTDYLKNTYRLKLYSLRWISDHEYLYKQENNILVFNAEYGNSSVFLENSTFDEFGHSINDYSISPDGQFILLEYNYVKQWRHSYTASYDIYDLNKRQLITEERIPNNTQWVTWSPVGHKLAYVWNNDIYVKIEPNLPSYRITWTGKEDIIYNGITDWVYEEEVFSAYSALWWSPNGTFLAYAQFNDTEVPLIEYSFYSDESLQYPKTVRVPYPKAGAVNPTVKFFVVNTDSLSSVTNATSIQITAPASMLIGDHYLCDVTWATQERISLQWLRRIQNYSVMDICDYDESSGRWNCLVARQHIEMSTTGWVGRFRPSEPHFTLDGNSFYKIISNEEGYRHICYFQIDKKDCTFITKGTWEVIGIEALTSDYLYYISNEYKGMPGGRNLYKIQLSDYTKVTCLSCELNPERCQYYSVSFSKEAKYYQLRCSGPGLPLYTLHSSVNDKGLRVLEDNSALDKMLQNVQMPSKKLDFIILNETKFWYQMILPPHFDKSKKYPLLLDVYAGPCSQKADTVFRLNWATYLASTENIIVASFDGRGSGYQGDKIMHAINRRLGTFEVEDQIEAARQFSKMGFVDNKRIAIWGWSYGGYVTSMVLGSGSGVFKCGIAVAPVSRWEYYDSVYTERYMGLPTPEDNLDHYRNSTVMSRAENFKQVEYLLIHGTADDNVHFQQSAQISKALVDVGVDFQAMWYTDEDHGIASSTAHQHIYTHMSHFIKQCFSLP

T1 sequence (P27487 39-766 limits assumed): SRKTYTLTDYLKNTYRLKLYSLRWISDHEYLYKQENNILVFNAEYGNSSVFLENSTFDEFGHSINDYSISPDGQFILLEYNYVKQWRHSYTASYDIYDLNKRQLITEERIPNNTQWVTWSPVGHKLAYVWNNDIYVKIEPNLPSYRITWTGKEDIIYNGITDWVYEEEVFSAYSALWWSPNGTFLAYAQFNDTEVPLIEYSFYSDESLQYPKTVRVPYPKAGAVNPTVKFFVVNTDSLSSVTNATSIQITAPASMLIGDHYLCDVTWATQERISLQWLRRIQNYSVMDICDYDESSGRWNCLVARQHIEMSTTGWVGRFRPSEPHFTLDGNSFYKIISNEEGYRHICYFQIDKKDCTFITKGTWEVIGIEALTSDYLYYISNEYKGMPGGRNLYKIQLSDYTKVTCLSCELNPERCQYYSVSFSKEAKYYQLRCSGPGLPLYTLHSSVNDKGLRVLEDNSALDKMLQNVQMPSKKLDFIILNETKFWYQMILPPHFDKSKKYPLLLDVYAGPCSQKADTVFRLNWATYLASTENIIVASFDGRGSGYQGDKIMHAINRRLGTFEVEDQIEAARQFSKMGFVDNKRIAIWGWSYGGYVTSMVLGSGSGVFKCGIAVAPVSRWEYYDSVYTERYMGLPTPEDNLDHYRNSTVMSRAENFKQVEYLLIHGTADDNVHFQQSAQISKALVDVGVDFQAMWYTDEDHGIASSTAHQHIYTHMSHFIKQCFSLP
T2 sequence (P14740 37-767 limits assumed): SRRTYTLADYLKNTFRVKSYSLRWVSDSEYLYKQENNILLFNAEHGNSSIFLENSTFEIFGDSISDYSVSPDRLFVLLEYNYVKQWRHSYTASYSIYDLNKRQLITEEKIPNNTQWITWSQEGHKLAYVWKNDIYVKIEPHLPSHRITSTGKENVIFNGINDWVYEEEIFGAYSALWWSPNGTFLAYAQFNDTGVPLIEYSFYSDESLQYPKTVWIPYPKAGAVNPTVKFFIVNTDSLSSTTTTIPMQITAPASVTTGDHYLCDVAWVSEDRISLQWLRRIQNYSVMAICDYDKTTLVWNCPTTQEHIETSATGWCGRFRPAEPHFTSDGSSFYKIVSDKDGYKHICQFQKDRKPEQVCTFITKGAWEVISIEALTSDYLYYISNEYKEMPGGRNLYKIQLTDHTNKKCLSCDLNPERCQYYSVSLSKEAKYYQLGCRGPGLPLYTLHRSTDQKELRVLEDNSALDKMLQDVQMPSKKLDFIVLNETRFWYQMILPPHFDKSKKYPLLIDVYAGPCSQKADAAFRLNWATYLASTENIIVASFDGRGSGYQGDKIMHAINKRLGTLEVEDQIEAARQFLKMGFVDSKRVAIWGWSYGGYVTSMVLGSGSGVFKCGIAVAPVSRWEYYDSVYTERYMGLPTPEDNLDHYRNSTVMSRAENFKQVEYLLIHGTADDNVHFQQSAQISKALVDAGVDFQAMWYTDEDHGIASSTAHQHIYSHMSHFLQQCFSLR

Compound: C[C@H](N)C(=O)N1CCC[C@H]1B(O)O [Ala-boroPro]
MTD (maximum tolerated dose) (Lewis rats): ≧2,000 μg/kg

Compound: NC(N)=NCCC[C@H](N)C(=O)N1CCC[C@H]1B(O)O [Arg-boroPro]
persistence of DPP-IV inhibition after preincubation [1]: more rapidly reversible
MTD (maximum tolerated dose) (Lewis rats): ≧2,000 μg/kg

Compound: NC(=O)CC[C@H](N)C(=O)N1CCC[C@H]1B(O)O [Gln-boroPro]
MTD (maximum tolerated dose) (Lewis rats): ≧800 μg/kg

Compound: CC[C@H](C)[C@H](N)C(=O)N1CCC[C@H]1B(O)O [Ile-boroPro]
persistence of DPP-IV inhibition after preincubation [1]: sustained DPP-IV inhibition
supernatant G-CSF level (stimulation index) [2]: stimulate increased levels of G-CSF
MTD (maximum tolerated dose) (Lewis rats): 120 µg/kg
serum levels of KC/CXCL1 (serum KC/CXCL1): stimulate increased serum levels of KC/CXCL1 in a dose-dependent manner

Compound: CC(C)C[C@H](N)C(=O)N1CCC[C@H]1B(O)O [Leu-boroPro]
persistence of DPP-IV inhibition after preincubation [1]: more rapidly reversible
supernatant G-CSF level (stimulation index) [2]: stimulate increased levels of G-CSF
MTD (maximum tolerated dose) (Lewis rats): 200 µg/kg
serum levels of KC/CXCL1 (serum KC/CXCL1): stimulate increased serum levels of KC/CXCL1 in a dose-dependent manner

Compound: NCCCC[C@H](N)C(=O)N1CCC[C@H]1B(O)O [Lys-boroPro]
persistence of DPP-IV inhibition after preincubation [1]: more rapidly reversible
MTD (maximum tolerated dose) (Lewis rats): ≧2,000 μg/kg

Compound: CSCC[C@H](N)C(=O)N1CCC[C@H]1B(O)O [Met-boroPro]
MTD (maximum tolerated dose) (Lewis rats): 160 µg/kg

Compound: CN(C)C(=N)N=C(N)N [Metformin, reference compound]
AUC of 24 hour glucose profile [3]: achieve significance

persistence of DPP-IV inhibition after preincubation [1]: more rapidly reversible
Compound: N[C@@H](Cc1ccccc1)C(=O)N1CCC[C@H]1B(O)O [Phe-boroPro]

Compound: O=C(C1CCCN1)N1CCCC1B(O)O (stereo not shown) [Pro-boroPro]
persistence of DPP-IV inhibition after preincubation [1]: more rapidly reversible
MTD (maximum tolerated dose) (Lewis rats): ≧2,000 μg/kg

Compound: N[C@@H](CO)C(=O)N1CCC[C@H]1B(O)O [Ser-boroPro]
MTD (maximum tolerated dose) (Lewis rats): 4,000 μg/kg

Compound: C[C@@H](O)[C@H](N)C(=O)N1CCC[C@H]1B(O)O [Thr-boroPro]
MTD (maximum tolerated dose) (Lewis rats): 800 µg/kg

Compound: CC(C)[C@H](N)C(=O)N1CCC[C@H]1B(O)O [Val-boroPro]
MTD (maximum tolerated dose) (Lewis rats): 20 µg/kg
serum levels of KC/CXCL1 (serum KC/CXCL1): stimulate increased serum levels of KC/CXCL1 in a dose-dependent manner
ID50 (dose causing 50% reduction in serum DPP-IV activity) (serum DPP-IV): 0.009 mg/kg

Compound: gastric inhibitory protein [GIP]
t1/2 of N-terminal degradation (DPP-IV): ~1 min
